# Laboratory results: US20250223268A1, “4-Methylsulfonylbenzamide Compound, Preparation Method, Herbicidal Composition And Use” (Jiangsu Flag Chemical Industry Co., Ltd., priority 2022, published 2025)
# Experiments:
# Test in all cases: Greenhouse herbicidal activity assay, post-emergence
# Format in all cases: in vivo
# Eclipta prostrata = conditions: Post-emergence test, rate 150 g a.i./hm^2, grade by fresh weight inhibition rate; for pest or weed control at 150 g/ha: Eclipta prostrata, read-out: Control efficacy grade, Eclipta prostrata
# Excerpt: (§1) Post-emergence: Seeds of gramineous weeds (Echinochloa crusgalli, Echinochloa crusgalli var. zelayensis, Echinochloa phyllopogon, Eleusine indica, Digitaria sanguinalis, Leptochloa chinensis, Setaria viridis, Alopecurus japonicus Steud, Beckmannia syzigachne, Polypogon fugax, Alopecurus aequalis, Lolium multiflorum, Poa annua, Aegilops tataschii, Avena fatua, Alopecurus myosuroides, Bromus japonicus), broadleaf weeds (Eclipta prostrata, Amaranthus retroflexus, Rorippa indica, Myosoton aquaticum, Veronica didyma, Galium aparine, Solanum nigrum, Xanthium sibiricum, Conyza canadensis, Sesbania cannabina, Sagittaria trifolia), and Cyperus iria (Cyperus iria, Scirpus juncoides, Cyperus difformis, etc.) were sown in plastic pots (7 cm diameter) with nutrient soil and bottom holes. Crop seeds (including Oryza sativa subsp. indica, Oryza sativa subsp. japonica, Oryza sativa L. var. Glutinosa matsum, Triticum aestivum, Zea mays, Sorghum bicolor, Setaria italica, Glycine max, Gossypium hirsutum, Brassica napus, Arachis hypogaea) were sown in plastic pots (10 cm diameter) with nutrient soil and bottom holes. After sowing, the pots were placed in the growth chamber until the plants reached the 3-6 leaf stage for foliar spraying. Post-treatment, the materials were air-dried naturally and returned to the growth chamber. Results were assessed 14-21 days later.
# (§2) • A: Fresh weight inhibition rate≥80% to 100%; • B: Fresh weight inhibition rate[…] to <80%; • C: Fresh weight inhibition rate≥40% to <60%; • D: Fresh weight inhibition rate≥20% to <40%; • E: Fresh weight inhibition rate<20%; • NT: Not tested.
# Cyperus iria = conditions: Post-emergence test, rate 150 g a.i./hm^2, grade by fresh weight inhibition rate; for pest or weed control at 150 g/ha: Cyperus iria, read-out: Control efficacy grade, Cyperus iria
# Excerpt: as §1, §2
# Leptochloa chinensis = conditions: Post-emergence test, rate 150 g a.i./hm^2, grade by fresh weight inhibition rate; for pest or weed control at 150 g/ha: Dinebra chinensis, read-out: Control efficacy grade, Leptochloa chinensis
# Excerpt: as §1, §2
# Digitaria sanguinalis = conditions: Post-emergence test, rate 150 g a.i./hm^2, grade by fresh weight inhibition rate
# Excerpt: as §1, §2
# Echinochloa crusgalli = conditions: Post-emergence test, rate 150 g a.i./hm^2, grade by fresh weight inhibition rate
# Excerpt: as §1, §2
Structure (SMILES),"Control efficacy grade, Eclipta prostrata (Eclipta prostrata)","Control efficacy grade, Cyperus iria (Cyperus iria)","Control efficacy grade, Leptochloa chinensis (Leptochloa chinensis)","Control efficacy grade, Digitaria sanguinalis (Digitaria sanguinalis)","Control efficacy grade, Echinochloa crusgalli (Echinochloa crusgalli)",pest or weed control at 150 g/ha (Eclipta prostrata),pest or weed control at 150 g/ha (Cyperus iria),pest or weed control at 150 g/ha (Leptochloa chinensis),"pest or weed control at 150 g/ha (Echinochloa crusgalli; Echinochloa crus-galli, read-out: Control efficacy grade, Echinochloa crusgalli)","pest or weed control at 150 g/ha (Digitaria sanguinalis; Digitaria sanguinalis, read-out: Control efficacy grade, Digitaria sanguinalis)"
Cc1nnc(NC(=O)c2ccc(S(C)(=O)=O)c([S+]([O-])Cc3ccccc3)c2Cl)o1 (racemic) [Compound 3-68],A (Fresh weight inhibition rate≥80% to 100%),A (Fresh weight inhibition rate≥80% to 100%),A (Fresh weight inhibition rate≥80% to 100%),B (Fresh weight inhibition rate≥260% to <80%),,,,,,
Cc1nnc(NC(=O)c2ccc(S(C)(=O)=O)c([S+]([O-])CCCl)c2Cl)o1 (racemic) [Compound 3-213],,A (Fresh weight inhibition rate≥80% to 100%),A (Fresh weight inhibition rate≥80% to 100%),A (Fresh weight inhibition rate≥80% to 100%),A (Fresh weight inhibition rate≥80% to 100%),,,,,
CC(C)c1nnc(NC(=O)c2ccc(S(C)(=O)=O)c([S+]([O-])C3CCCC3)c2Cl)o1 (racemic) [Compound 3-546],A (Fresh weight inhibition rate≥80% to 100%),A (Fresh weight inhibition rate≥80% to 100%),A (Fresh weight inhibition rate≥80% to 100%),,B (Fresh weight inhibition rate≥260% to <80%),,,,,
CC(C)c1nnc(NC(=O)c2ccc(S(C)(=O)=O)c([S+]([O-])C3CCCCC3)c2Cl)o1 (racemic) [Compound 3-551],A (Fresh weight inhibition rate≥80% to 100%),A (Fresh weight inhibition rate≥80% to 100%),A (Fresh weight inhibition rate≥80% to 100%),,B (Fresh weight inhibition rate≥260% to <80%),,,,,
CS(=O)(=O)c1ccc(C(=O)Nc2nnc(C3CC3)o2)c(Cl)c1[S+]([O-])C1CC1 (racemic) [Compound 3-652],A (Fresh weight inhibition rate≥80% to 100%),A (Fresh weight inhibition rate≥80% to 100%),A (Fresh weight inhibition rate≥80% to 100%),A (Fresh weight inhibition rate≥80% to 100%),,,,,,
CS(=O)(=O)c1ccc(C(=O)Nc2nnc(C3CC3)o2)c(Cl)c1[S+]([O-])C1CCCC1 (racemic) [Compound 3-662],A (Fresh weight inhibition rate≥80% to 100%),A (Fresh weight inhibition rate≥80% to 100%),A (Fresh weight inhibition rate≥80% to 100%),A (Fresh weight inhibition rate≥80% to 100%),,,,,,
CCC(C)S(=O)(=O)c1c(S(C)(=O)=O)ccc(C(=O)Nc2nonc2C)c1Cl (racemic) [Compound 4-24],A (Fresh weight inhibition rate≥80% to 100%),A (Fresh weight inhibition rate≥80% to 100%),A (Fresh weight inhibition rate≥80% to 100%),A (Fresh weight inhibition rate≥80% to 100%),,,,,,
Cn1nnnc1NC(=O)c1ccc(S(C)(=O)=O)c(SC2CCCC2)c1Cl [Compound 1-42],A (Fresh weight inhibition rate≥80% to 100%),A (Fresh weight inhibition rate≥80% to 100%),A (Fresh weight inhibition rate≥80% to 100%),,B (Fresh weight inhibition rate≥260% to <80%),,,,,
Cn1nnnc1NC(=O)c1ccc(S(C)(=O)=O)c(SC2CCCCC2)c1Cl [Compound 1-47],A (Fresh weight inhibition rate≥80% to 100%),A (Fresh weight inhibition rate≥80% to 100%),A (Fresh weight inhibition rate≥80% to 100%),,B (Fresh weight inhibition rate≥260% to <80%),,,,,
CCCSc1c(S(C)(=O)=O)ccc(C(=O)N(C)c2nnnn2C)c1Cl [Compound 1-97],,A (Fresh weight inhibition rate≥80% to 100%),,B (Fresh weight inhibition rate≥260% to <80%),,,,,,
Cn1ncnc1NC(=O)c1ccc(S(C)(=O)=O)c(S(=O)(=O)CC2CC2)c1Cl [Compound 2-31],A (Fresh weight inhibition rate≥80% to 100%),A (Fresh weight inhibition rate≥80% to 100%),A (Fresh weight inhibition rate≥80% to 100%),,A (Fresh weight inhibition rate≥80% to 100%),,,,,
Cc1nnc(NC(=O)c2ccc(S(C)(=O)=O)c(SC(C)(C)C)c2Cl)o1 [Compound 3-32],,A (Fresh weight inhibition rate≥80% to 100%),A (Fresh weight inhibition rate≥80% to 100%),B (Fresh weight inhibition rate≥260% to <80%),A (Fresh weight inhibition rate≥80% to 100%),,,,,
C=C(C)CS(=O)(=O)c1c(S(C)(=O)=O)ccc(C(=O)Nc2nnc(C)o2)c1Cl [Compound 3-146],A (Fresh weight inhibition rate≥80% to 100%),A (Fresh weight inhibition rate≥80% to 100%),A (Fresh weight inhibition rate≥80% to 100%),B (Fresh weight inhibition rate≥260% to <80%),,,,,,
Cc1nnc(NC(=O)c2ccc(S(C)(=O)=O)c(SCC(F)(F)C(F)(F)F)c2Cl)o1 [Compound 3-172],A (Fresh weight inhibition rate≥80% to 100%),A (Fresh weight inhibition rate≥80% to 100%),A (Fresh weight inhibition rate≥80% to 100%),A (Fresh weight inhibition rate≥80% to 100%),,,,,,
Cc1nnc(NC(=O)c2ccc(S(C)(=O)=O)c(SC(C)C#N)c2Cl)o1 (stereo not drawn) [Compound 3-202],,B (Fresh weight inhibition rate≥260% to <80%),A (Fresh weight inhibition rate≥80% to 100%),B (Fresh weight inhibition rate≥260% to <80%),A (Fresh weight inhibition rate≥80% to 100%),,,,,
CS(=O)(=O)c1ccc(C(=O)Nc2nnco2)c(Cl)c1S(=O)(=O)CCC#N [Compound 3-377],A (Fresh weight inhibition rate≥80% to 100%),A (Fresh weight inhibition rate≥80% to 100%),A (Fresh weight inhibition rate≥80% to 100%),,C (Fresh weight inhibition rate≥40% to <60%),,,,,
CCc1nnc(NC(=O)c2ccc(S(C)(=O)=O)c(SCC(F)F)c2Cl)o1 [Compound 3-444],,,A (Fresh weight inhibition rate≥80% to 100%),B (Fresh weight inhibition rate≥260% to <80%),A (Fresh weight inhibition rate≥80% to 100%),,,,,
C=CCSc1c(S(C)(=O)=O)ccc(C(=O)Nc2nnc(CC)o2)c1Cl [Compound 3-454],,A (Fresh weight inhibition rate≥80% to 100%),A (Fresh weight inhibition rate≥80% to 100%),A (Fresh weight inhibition rate≥80% to 100%),A (Fresh weight inhibition rate≥80% to 100%),,,,,
CCCSc1c(S(C)(=O)=O)ccc(C(=O)Nc2nnc(C3CC3)o2)c1Cl [Compound 3-615],A (Fresh weight inhibition rate≥80% to 100%),A (Fresh weight inhibition rate≥80% to 100%),A (Fresh weight inhibition rate≥80% to 100%),A (Fresh weight inhibition rate≥80% to 100%),,,,,,
"CC(C)Sc1c(S(C)(=O)=O)ccc(C(=O)Nc2nnc(C3CC3)o2)c1Cl [Compound 3-620, 2-chloro-N-(5-cyclopropyl-1,3,4-oxadiazol-2-yl)-3-(isopropylthio)-4-(methylsulfonyl)benzamide]",,,,,,80 to 260%,80 to 260%,80 to 100%,80 to 100%,
"CCCSc1c(S(C)(=O)=O)ccc(C(=O)Nc2nonc2C)c1Cl [Compound 4-1, 2-chloro-N-(4-methyl-1,2,5-oxadiazol-3-yl)-4-(methylsulfonyl)-3-(propylthio)benzamide]",,,,,,80 to 100%,80 to 100%,80 to 100%,,80 to 100%
